For 22 molecules, IC50 results are on record in patent publication US7390831B2, “Tetracyclic steroid derivatives useful as progesterone receptor modulators” (Janssen Pharmaceutica N.V., priority 2006, dated 2008).

Experiment [1] concerns A549 Human lung carcinoma cells. Put plainly: A549 Human Lung Cell Assay (transfected cells, dexamethasone challenge, luciferase read-out). The format is cell-based. The conditions noted are these: test compound 10 min then dexamethasone challenge, 24 h, Luc-assay, read-out: A 549 IC50. Here is the method: A549Human Lung Cell Assay
A549Human lung carcinoma cells were grown in F-12K Nutrient Mixture containing 10% (v/v) fetal bovine serum (FBS; Invitrogen), 2 mM glutamine and 0.15% sodium dicarbonate (Invitrogen).
A549 cells were split 1 to 3 in 175 cm tissue culture flask. The cells were incubated at 37° C. in CO2 incubator until the cells were 95% confluent (typically 24-30 hours).
The following solutions were prepared in sterile tubes: (a) Solution A 1.5 μg/ml of DNA in 8.5 ml OPTI-MEM I Reduced Serum Medium. (GIBCO cat# 31985) and (b) Solution B: 6 μl/ml of DMRIE-C Reagent into […] OPTI-MEM I. The two solutions were combined and mixed gently, then incubated at room temperature for 40 minutes.
The A549 cells prepared above were washed with […] of OPTI-MEM I. The medium was removed and 17 ml of the lipid-DNA complex solution was overlayed onto cells. The cells ere then incubated for 16 h at 37° C. in CO2 incubator. The DNA-containing medium was removed and 30 ml of growth medium was added. (5% Charcoal treated FBS) After 5-6 h, the cells were seeded in a 96 well plate and the cells incubated overnight at 37° C. in CO2 incubator.
To each well was then added 5 μl of test compounds and the cells incubated at 37° C. for 10 min. 5 μL of dexamathasone (CAS [50-02-2]), was then added to each well for challenger and the cells incubated at 37° C. in CO2 incubator for 24 h. 100 μl of Luc-assay buffer was then added into each cell well and the cells incubated for 30 min at room temperature. A 150 μL sample from each well was then transferred into a DYNEX Microlitel plate and read on Top-counter.
(§1) Representative compounds of the present invention were tested according to the procedures described in Examples 45 and 46 above, with results as listed in Table 2 below.

The test system of experiment [2] is T47D human breast cancer cells. In words: T47D Human Breast Cancer Cells Assay (alkaline phosphatase, luminescence). In kind it is cell-based. The method, then:
T47D Human Breast Cancer Cells Assay
T47D human breast cancer cells were grown in RPMI medium without phenol red (Invitrogen) containing 10% (v/v) heat-inactivated fetal bovine serum (FBS; Hyclone), 1% (v/v) penicillin-streptomycin (Invitrogen), 1% (w/v) glutamine (Invitrogen), and […] insulin (Sigma). Incubation conditions were 37° C. in a humidified 5% (v/v) carbon dioxide environment.
The cells were plated in 96-well tissue culture plates at 10,000 cells per well in assay medium [RPMI medium without phenol red (Invitrogen) containing 5% (v/v) charcoal-treated FBS (Hyclone) and 1% (v/v) penicillin-streptomycin (Invitrogen)]. Two days later, the medium was decanted and test compound or control were added at a final concentration of 0.1% (v/v) dimethyl sulfoxide in fresh assay medium. Twenty-four hours later, an alkaline phosphatase assay was performed using a SEAP kit (BD Biosciences Clontech, Palo Alto, Calif.). Briefly, the medium was decanted and the cells were fixed for 30 minutes at room temperature with 5% (v/v) formalin (Sigma). The cells were washed once with room temperature Hank's buffered saline solution (Invitrogen). Equal volumes (0.05 mL) of 1× Dilution Buffer, Assay Buffer and 1:20 substrate/enhancer mixture were then added. After 1 hour incubation at room temperature in the dark, the lysate was transferred to a white 96-well plate (Dynex) and luminescence was read using a LuminoSkan Ascent (Thermo Electron, Woburn, Mass.).
as §1

Setting [3] is: Homo sapiens, T47D, 24 h, read-out: T47D IC50 (nM), T47D cells, 24 h with test compound, alkaline phosphatase assay (SEAP kit).
[4] abbreviates: read-out: T47D IC50, T47D cells, 24 h with test compound, alkaline phosphatase assay (SEAP kit).
[5] abbreviates: T47D cells, 24 h with test compound, alkaline phosphatase assay (SEAP kit), read-out: T47D IC50.

Like-named read-outs stand apart in the source and are kept apart here. Where only a bound is given, the exact number is not on record here.

Consider `COc1ccc([C@@H]2OC[C@]3(C)C(=O)CCC3C3CCC4=CC(=O)CCC4=C32)cc1` (stereo partly drawn) [Compound 29, 10-α-(4-Methoxy-phenyl)-12a-methyl-2,3,3a,3b,4,5,9,10,12,12a-decahydro-8H-11-oxa-naphtho[2,1-e]azulene-1,7-dione], for which the IC50 – broadly, the concentration that inhibits the measured activity by half – in experiment [1] (Homo sapiens, A549, A549 cells) is above 3000 nM. For the molecule `COc1ccc([C@@H]2OC[C@@]3(C)C(CC[C@@]3(O)C#CC(F)(F)F)C3CCC4=CC(=O)CCC4=C32)cc1` (some centres unmarked) [Compound 20, 1-Hydroxy-10-[…]-(4-methoxy-phenyl)-12a-methyl-1-trifluoroprop-1-ynyl-2,3,3a,3b,4,5,9,10,12,12a-decahydro-1H,8H-11-oxa-naphtho[2,1-e]azulen-7-one], the IC50 in experiment [2] (setting [3]) is above 1000 nM; in experiment [1] (Homo sapiens, A549, A549 cells), above 3000 nM. The corresponding values for `C=C(C)[C@]1(O)CCC2C3CCC4=CC(=O)CCC4=C3[C@@H](c3ccc(N(C)C)cc3)OC[C@@]21C` (some centres unmarked) [Compound 1, 10-(4-Dimethylamino-phenyl)-1-hydroxy-1-isopropenyl-12a methyl-2,3,3a,3b,4,5,9,10,12,12a-decahydro-1H,8H-11-oxa-naphtho[2,1 e]azulen-7-one] are 0.4 nM and 50.1 nM. Take `C=C(CCO)[C@]1(O)CCC2C3CCC4=CC(=O)CCC4=C3[C@@H](c3ccc(OC)cc3)OC[C@@]21C` (some centres unmarked) [Compound 24]: the IC50 amounted to 176 nM in experiment [2] (setting [3]); 130 nM in experiment [2] (setting [4]); 771 nM in experiment [1] (Homo sapiens, A549, A549 cells).

Regarding `COc1ccc([C@H]2OC[C@@]3(C)C(CC[C@@]3(O)C#CC(F)(F)F)C3CCC4=CC(=O)CCC4=C32)cc1` (some centres unmarked) [Compound 19, 1-Hydroxy-10-(4-methoxy-phenyl)-12a-methyl-1-trifluoroprop-1-ynyl-2,3,3a,3b,4,5,9,10,12,12a-decahydro-1H,8H-11-oxa-naphtho[2,1-e]azulen-7-one], the IC50 in experiment [2] (setting [3]) was above 1000 nM; in experiment [1] (Homo sapiens, A549, A549 cells), above 3000 nM. In the case of `COc1ccc([C@H]2OC[C@@]3(C)C(CC[C@@]3(O)C#Cc3ccccc3)C3CCC4=CC(=O)CCC4=C32)cc1` (some centres unmarked) [Compound 16, 1-Hydroxy-10-(4-methoxy-phenyl)-12a-methyl-1-phenylethynyl-2,3,3a,3b,4,5,9,10,12,12a-decahydro-1H,8H-11-oxa-naphtho[2,1-e]azulen-7-one], the IC50 was above 1000 nM in experiment [2] (setting [4]) and above 3000 nM in experiment [1] (A549 cells).

For the molecule `CC#C[C@]1(O)CCC2C3CCC4=CC(=O)CCC4=C3[C@@H](c3ccc(OC)cc3)OC[C@@]21C` (some centres unmarked) [Compound 27], in experiment [1] (A549 cells), the IC50 stood at 41.5 nM. With `CSc1ccc([C@H]2OC[C@]3(C)C(C#Cc4ccccc4)=CCC3C3CCC4=CC(=O)CCC4=C32)cc1` (some centres unmarked) [Compound 11, 12a-Methyl-10-(4-methylsulfanyl-phenyl)-1-phenylethynyl 3a,3b,4,5,9,10,12,12a-octahydro-3H,8H-11-oxa-naphtho[2,1-e]azulen-7-one], the IC50 in experiment [2] (setting [3]) was above 1000 nM; in experiment [1] (Homo sapiens, A549, A549 cells), above 3000 nM. The corresponding values for `CC#C[C@]1(O)CCC2C3CCC4=CC(=O)CCC4=C3[C@H](c3ccc(OC)cc3)OC[C@@]21C` (stereo partly drawn) [Compound 15, 1-Hydroxy-10-α(4-methoxy-phenyl)-12a-methyl-1-prop-1-ynyl-2,3,3a,3b,4,5,9,10,12,12a-decahydro-1H,8H-11-oxa-naphtho[2,1-e]azulen-7-one] are above 1000 nM and 583 nM. Turning to “10-(4-Dimethylamino-phenyl)-1-ethynyl-1-hydroxy-12a-methyl-2,3,3a,3b,4,5,9,10,12,12a-decahydro-1H,8H-11-oxa-naphtho[2,1-e]azulen-7-one [Compound 3]”, the figures for the IC50 in experiment [2] (setting [5]) and in experiment [1] (A549 cells) were 7 nM and 133 nM, respectively. The matching figures for `CSc1ccc(C2OCC3(C)C(CCC3(O)C(F)(F)C(F)(F)F)C3CCC4=CC(=O)CCC4=C23)cc1` (centres unmarked) [Compound 4, 1-Hydroxy-12a-methyl-10-(4-methylsulfanyl-phenyl)-1-pentafluoroethyl-2,3,3a,3b4,5,9,10,12,12a-decahydro-1H,8H-11-oxa-naphtho[2,1-e]azulen-7-one]: 33.2 nM and 68.7 nM.

As for “1-Hydroxy-1-isopropenyl-10-(4-methanesulfonyl-phenyl)-12a-methyl-2,3,3a,3b,4,5,9,10,10,12,12a-decahydro-1H,8H-11-oxa-naphtho[2,1-e]azulen-7-one [Compound 30]”, the IC50 in experiment [1] (A549 cells) is above 1000 nM. With `COc1ccc([C@H]2OC[C@]3(C)C(=O)CCC3C3CCC4=CC(=O)CCC4=C32)cc1` (some centres unmarked) [Compound 28, 10-(4-Methoxy-phenyl)-12a-methyl-2,3,3a,3b,4,5,9,10,12,12a-decahydro-8H-11-oxa-naphtho[2,1-e]azulene-1,7-dione], the IC50 in experiment [1] (Homo sapiens, A549, A549 cells) was above 3000 nM. Take `CN(C)c1ccc(C2OCC3(C)C(CCC3(O)C(F)(F)C(F)(F)F)C3CCC4=CC(=O)CCC4=C23)cc1` (centres unmarked) [Compound 37, 10-(4-Dimethylamino-phenyl)-1-hydroxy-12a-methyl-1-penta fluoroethyl 2,3,3a,3b4,5,9,10,12,12a-decahydro-1H,8H-11-oxa-naphtho[2,1-e]azulen-7-one]: in experiment [2] (setting [5]), the IC50 was 42 nM.

“10-(4-Dimethylamino-phenyl)-1-(4-fluoro-phenylethynyl)-1-hydroxy-12a-methyl-2,3,3a,3b,4,5,9,10,12,12a-decahydro-1H,8H-11-oxa-naphtho[2,1-e]azulen-7-one [Compound 35]”: the IC50 in experiment [2] (setting [5]) amounted to 17 nM. For `CN(C)c1ccc([C@H]2OC[C@@]3(C)C(CC[C@@]3(O)C#Cc3ccccc3)C3CCC4=CC(=O)CCC4=C32)cc1` (some centres unmarked) [Compound 31, 10-(4-Dimethylamino-phenyl)-1-hydroxy-12a-methyl-1-phenyl ethynyl-2,3,3a,3b,4,5,9,10,12,12a-decahydro-1H,8H-11-oxa-naphtho[2,1-e]azulen-7-one], the IC50 in experiment [2] (setting [3]) was 78 nM.

As for `C=CC(=O)[C@]1(O)CCC2C3CCC4=CC(=O)CCC4=C3[C@@H](c3ccc(SC)cc3)OC[C@@]21C` (some centres unmarked) [Compound 26], the IC50 in experiment [1] (Homo sapiens, A549, A549 cells) was found to be 2310 nM. For `C=C1CCOC12CC[C@H]1[C@@H]3CCC4=CC(=O)CCC4=C3[C@@H](c3ccc(N(C)C)cc3)OC[C@@]12C` (some centres unmarked) [Compound 38], the IC50 in experiment [2] (setting [3]) is 1.1 nM. Turning to `CSc1ccc([C@H]2OC[C@]3(C)C(=O)CCC3C3CCC4=CC(=O)CCC4=C32)cc1` (some centres unmarked) [Compound 25, 12a-Methyl-10-(4-methylsulfanyl-phenyl) 2,3,3a,3b,4,5,9,10,12,12a-decahydro-8H-11-oxa-naphtho[2,1-e]azulene-1,7-dione], the 50% inhibitory concentration (IC50) in experiment [1] (Homo sapiens, A549, A549 cells) came to 1320 nM. With `CN(C)c1ccc([C@H]2OC[C@@]3(C)C(CC[C@@]3(O)C#Cc3ccccc3F)C3CCC4=CC(=O)CCC4=C32)cc1` (some centres unmarked) [Compound 32, 10-(4-Dimethylamino-phenyl)-1-(2-fluoro-phenylethynyl)-1-hydroxy-12a-methyl-2,3,3a,3b,4,5,9,10,12,12a-decahydro-1H,8H-11-oxa-naphtho[2,1-e]azulen-7-one], the IC50 in experiment [2] (setting [3]) worked out at 48 nM.

With “10-(4-Dimethylamino-phenyl)-1-(3-fluoro-phenylethynyl)-1-hydroxy-12a-methyl-2,3,3a,3b,4,5,9,10,12,12 a-decahydro-1H,8H-11-oxa-naphtho[2,1-e]azulen-7-one [Compound 34]”, the half-inhibitory concentration (IC50) in experiment [2] (setting [5]) worked out at 122 nM. Regarding `CN(C)c1ccc([C@H]2OC[C@@]3(C)C(CC[C@@]3(O)C#Cc3cc(F)cc(F)c3)C3CCC4=CC(=O)CCC4=C32)cc1` (some centres unmarked) [Compound 36, 1-(3,5-Difluoro-phenylethynyl)-10-(4-dimethylamino-phenyl)-1-hydroxy-12a-methyl-2,3,3a,3b,4,5,9,10,12,12a-decahydro-1H,8H-11-oxa-naphtho[2,1-e]azulen-7-one], in experiment [2] (setting [3]), the IC50 amounted to 160 nM.
